Measurements: patent publication US7008931B2, “Anti-inflammatory and healing medicine based on laminarin sulphate” (Laboratoires GOEMAR S.A., priority 2000, dated 2006)
Each block holds one compound with its values, some of them ahead of it.

Assays:
[1] = system: edema of the ear of the mouse induced with croton oil; test: edema of the ear of the mouse induced with croton oil; assay type: in vivo; settings: for equipotent amount per ear for inhibition of inflammation: topical, with 70 μg croton oil, 4 hours
Protocol: The topic activity which inhibits inflammation and which is presented by laminarin sulphate, has been tested in the model constituted by the edema of the ear of the mouse induced with croton oil. The control was indomethacin. The tested animals were male mice of the type Swiss CD-1 whose weight was 20 to 25 g. Three groups of tests were carried out on three groups of animals. The first group is a negative control group wherein only the pro-inflammatory agent consisting of croton oil was used. The second group is a positive control group and comprises the use of croton oil and of indomethacin (200 nMol/ear which corresponds to 71.56 μg/ear). The third group relates to the use of laminarin sulphate and comprises the use of 70 μg of croton oil and of increasing amounts of laminarin sulphate (100, 250, 500, 750 and 1000 μg/ear).
In the case of the control groups, of the group of reference and of the group comprising the use of the different concentrations of laminarin sulphate, 10 mice were used each time. […] On each ear (surface of about 1 cm^2) 70 μg of croton oil were applied at the same time as indomethacin or laminarin sulphate or dexamethasone. Four hours later, samples having a diameter of 7 mm were cut up and weighed.
For the statistical exploitation an analysis of the variance (ANOVA) as well as the Scheffe test were carried out.

P-selectin = target: T1, P-selectin (Homo sapiens, UniProt P16109); test: cellular adhesion on immobilized P-selectin under static conditions (U 937 cells); assay type: cell-based
T1 sequence (P16109 42-830): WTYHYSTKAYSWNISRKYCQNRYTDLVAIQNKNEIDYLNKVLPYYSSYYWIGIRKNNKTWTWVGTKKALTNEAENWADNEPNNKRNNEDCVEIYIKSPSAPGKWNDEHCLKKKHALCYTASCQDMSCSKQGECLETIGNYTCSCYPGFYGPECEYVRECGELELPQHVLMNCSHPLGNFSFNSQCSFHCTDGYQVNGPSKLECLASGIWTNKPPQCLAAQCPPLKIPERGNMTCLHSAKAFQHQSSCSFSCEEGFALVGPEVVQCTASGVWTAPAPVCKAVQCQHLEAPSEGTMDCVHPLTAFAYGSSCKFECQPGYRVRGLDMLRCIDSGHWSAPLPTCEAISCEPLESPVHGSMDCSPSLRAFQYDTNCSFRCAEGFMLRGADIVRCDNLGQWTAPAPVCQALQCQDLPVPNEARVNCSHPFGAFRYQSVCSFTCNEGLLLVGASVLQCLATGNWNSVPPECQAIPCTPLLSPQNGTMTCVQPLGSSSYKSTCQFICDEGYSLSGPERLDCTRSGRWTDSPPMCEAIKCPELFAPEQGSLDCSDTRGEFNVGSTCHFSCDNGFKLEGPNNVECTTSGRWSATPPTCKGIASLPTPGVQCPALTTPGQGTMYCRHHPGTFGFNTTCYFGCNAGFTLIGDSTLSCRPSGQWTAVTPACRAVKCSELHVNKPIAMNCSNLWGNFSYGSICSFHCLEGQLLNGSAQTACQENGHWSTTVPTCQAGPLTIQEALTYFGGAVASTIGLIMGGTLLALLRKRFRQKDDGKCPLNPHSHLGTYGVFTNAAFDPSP
Source text: (§1) Test 3: Influence on the Adhesion of the Cells Induced by Selectin
(§2) Consequently, the effect of laminarin sulphate has been examined through the direct quantification of the cells bond to the selectins immobilized on microplates.
(§3) The influence of the laminarin sulphate on the adhesion of the cells due to the selectins has been studied first under static conditions as schematically shown on FIG. 3a (E-selectins or P-selectins) and 3b (L-selectins). The selectin has been deposited on a microtitration plate; in that respect and in the case of L-selectin the human chimera Fc of L-selectin has been used. Then, the plate was incubated with the test substance and with cells carrying the ligands of the corresponding selecting, that is to say in the case of L-selectin the human cellular line LS 180 of the adenocarcinoma of the colon and in the case of the selectins P and E the human lymphomic cellular line U 937.
(§4) The number of cells bond to the microtitration plate after washing and subsequent lysis of these cells was determined and their lactate dehydrogenase content was determined by way of an enzymatic reaction.

[2] = system: complement system (obtained from human serum), alternative route; test: inhibition of the activation of the complement by the alternative route (hemolysis of rabbit erythrocytes); assay type: biochemical; settings: for IC (50), inhibition of the complement by the alternative route: laminarin sulphate without incubation
Source text: (§5) Test 1: Measuring of the Anti-Complementary Activity
(§6) The complement system plays a key role in the inflammatory processes induced by infections. The substances which inhibit in vitro the activation of the complement are potentially in vivo anti-inflammatory products.
(§7) The activation of the complement can be carried out by the classical route in which the system antigen-antibody plays a role, or by the so-called alternative route. The anti-complementary activity of laminarin sulphate has been examined in vitro in comparison to that of the above heparin of low molecular weight used as reference (HBPM).
(§8) The evaluation of the anti-complementary reactivity is carried out by photometric or colorimetric measurement of the hemoglobin freed by lysis of the erythrocytes. The erythrocytes used are sheep antibody-sensitized erythrocytes for the classical route and rabbit erythrocytes for the altern route.
(§9) In a first step, the product to be tested and the complement system (obtained from human serum) are put into contact with one another and if necessary incubated during 30 minutes and then, in a second step, they are put into contact with the erythrocytes during 45 minutes.
(§10) The more the test product inhibits the complement, the more the lysis of the erythrocytes is weak and the less the amount of freed hemoglobin is important.
(§11) The anti-complementary activity is expressed in IC (50) (IC meaning “inhibiting concentration”) which designates the concentration expressed in […] of test substance per ml of mixture of the test substance and the serum (μg/ml), concentration which is necessary to inhibit by 50% the activity of the complement.

[3] = system: complement system (obtained from human serum), classical route; test: inhibition of the activation of the complement by the classical route (hemolysis of sheep antibody-sensitized erythrocytes); assay type: biochemical
Source text: as §5, §6, §7, §8, §9, §10, §11

[4] = system: human chimera Fc of L-selectin; test: cellular adhesion on immobilized L-selectin under static conditions (LS 180 cells); assay type: cell-based
Chain of human chimera Fc of L-selectin (P14151 39-318 limits assumed, change not shown): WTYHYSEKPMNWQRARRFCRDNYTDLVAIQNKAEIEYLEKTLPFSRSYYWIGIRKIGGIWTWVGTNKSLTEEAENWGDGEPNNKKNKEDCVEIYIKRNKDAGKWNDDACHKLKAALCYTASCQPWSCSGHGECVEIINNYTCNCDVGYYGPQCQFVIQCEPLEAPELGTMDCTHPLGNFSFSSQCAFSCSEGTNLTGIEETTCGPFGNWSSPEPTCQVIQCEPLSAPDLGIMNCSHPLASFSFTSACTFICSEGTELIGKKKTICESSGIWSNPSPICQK
Source text: as §1, §2, §3, §4

[5] = system: polymorphnuclear neutrophiles (PMN); test: chemotaxy of granulocytes, Boyden Chamber test with C5a (human serum activated with Zymosan); assay type: cell-based
Source text: Test 2: Examination of the Influence on the Chemiotaxy of the Granulocytes
The polymorphnuclear neutrophiles or PMN are cells which are characteristic of the infiltrate of the acute inflammation. The movement or the migration of neutrophiles from inside of the blood vessels in direction of the tissues is provoked by molecules which are called chemotaxins. Two chemotaxins are particularly important in the case of the polynuclear neutrophiles, i.e. the fragment C5a of the complement and the interleukin 8 (IL-8). The movement of the neutrophiles can be aleatory (which means that a so called chemokinesis occurs) or can be oriented along the length of a gradient of chemotaxins.
Consequently, the ability of laminarin sulphate to inhibit the chemotaxy of […] was examined; this study has been carried out in vitro by way of the test called Test of the Boyden Chamber (a variant of the Boyden Chamber having 96 holes was used) the fragment C5a in the form of human serum activated with Zymosan having been used as chemiotaxin. As shown on FIG. 2, the Boyden Chamber comprises 2 compartments respectively 1 and 2 which are separated by a membrane 3 consisting of polycarbonate (dimension of the pores 3 μm). The pores of the said membrane authorize the active passing of the cells but not their passive diffusion.
The polymorphnuclear neutrophiles PMN are placed in the higher compartment 2 together with the substance to be tested at various doses. The C5a is placed in the lower compartment.
The measurement of the inhibition of the chemotaxy is carried out by numbering the cells which have been attracted in the lower compartment. For the numbering of the cells, they are lysed with Triton X, and the free peroxidase is then quantified by adding 2,2-azino-di-[3-ethylbenzo-thiazoline] sulfonate or ABTS marketed by Boehringer Mannheim and by measuring at 405 nm the extinction of the colored product which has been formed.

factor Xa = test: specific anti-factor Xa test using chromogeneous substrates; assay type: biochemical
Source text: (§12) The effect in the case of the duration of thrombin can be considered as being due to an inhibition of thrombin dependent from the cofactor II heparin. […] For that reason and due to the better effect in the systems of anti-inflammatory tests, the profile “utility/risk” moves in the case of laminarin sulphate unequivocally in the sense of an anti-inflammatory effect. It follows that the anti-inflammatory properties of laminarin sulphate can be advantageously used without the apprehension of undesirable side effects on coagulation.

[6] = system: intrinsic system of the coagulation; test: coagulation test APTT; assay type: biochemical
Source text: (§13) The anti-coagulant activity which depends from the concentration of laminarin sulphate has been determined in comparison with that of heparin in the classical coagulation tests APTT or “Aktivierte partielle Thromboplastin-Zeit”, of the duration of the prothrombin, by way of the test so called “HEPTEST” and the duration of the thrombin. The APTT reflects an interaction with the intrinsic system of the coagulation while the duration of prothrombin reflects an interaction with the extrinsic coagulation; the so called “HEPTEST” is a classical test for the measurement of the inhibiting activity of heparin with respect to the Xa factor and the duration of thrombin corresponds to the last step of the coagulation, i.e. the formation of fibrins induced by the thrombin. In contradiction with that of heparin, the activity of laminarin sulphate in the so called “HEPTEST” is more than 20 times weaker. […] The specific activity (IU/mg) in the APTT represents 30% of the activity of heparin and in the case of the duration of thrombin it represents 60%. In order to totally prevent the coagulation it is convenient to use in the case of APTT a concentration 4 times higher and in the case of the duration of thrombin a concentration 20 times higher.

[7] = system: MDA-MB-231, MCF, U937, LS180 cellular lines; test: cytotoxicity tests (5 days proliferation with crystal violet or MTT, acute LDH kit); assay type: cell-based, human; settings: highest tested concentration, 100 μg/ml
Protocol: In order to test cytoxicity, the following cellular lines were used: MDA-MB-231 (human mammary carcinoma); MCF (human mammary carcinoma); U937—(human lymphoma); and, LS180 (human adenocarcinoma).
The test used is a 5 days proliferation test and the determination of the number of living cells was carried out by coloration with crystallin violet or crystallin purple. A 5 day proliferation test with determination of the number of living cells using the test MTT has also been carried out. Finally the acute cytotoxicity has been determined using a kit marketed by the company Boehringer Mannheim under the title “Cytotoxicity detection kit” (LDH).

Xa factor = test: HEPTEST coagulation test; assay type: biochemical; settings: relative to heparin
Source text: as §13

extrinsic coagulation = test: duration of the prothrombin coagulation test; assay type: biochemical
Source text: as §13

thrombin [8] = test: specific anti-thrombin test using chromogeneous substrates; assay type: biochemical
Source text: as §12

thrombin [9] = test: duration of the thrombin coagulation test; assay type: biochemical
Source text: as §13

Compound: COc1ccc2c(c1)c(CC(=O)O)c(C)n2C(=O)c1ccc(Cl)cc1 [indomethacin, reference compound]
equipotent amount per ear for inhibition of inflammation [1]: 72 μg per ear

Inhibition expressed in % of the cellular adhesion on P-selectin (P-selectin; 5 μg/ml): 12 ± 5%
Inhibition expressed in % of the cellular adhesion on P-selectin (P-selectin; 25 μg/ml): 30 ± 4%
Compound: heparin [reference compound]
IC (50), inhibition of the complement by the alternative route [2]: 464 µg/mL
IC (50), inhibition of the activation of the complement by the classical way [3]: 43.7 ± 1.9 µg/mL
Inhibition expressed in % of the cellular adhesion on L-selectin ([4]; 5 μg/ml): 15 ± 5%
Inhibition expressed in % of the cellular adhesion on L-selectin ([4]; 25 μg/ml): 32 ± 3%
inhibition of the cellular migration ([5]; 1.67 μg/ml): not inhibited
inhibition of the cellular migration ([5]; 4.2 μg/ml): 10%±5%

Inhibition expressed in % of the cellular adhesion on P-selectin (P-selectin; 5 μg/ml): 50 ± 2%
Inhibition expressed in % of the cellular adhesion on P-selectin (P-selectin; 25 μg/ml): 63 ± 3%
Compound: laminarin sulphate
anti-factor Xa activity dependent from anti-thrombin (factor Xa): does not present a significant anti-factor Xa activity
concentration to totally prevent the coagulation, times higher than heparin ([6]; APTT): 4 times
specific activity (IU/mg) in the APTT as % of the activity of heparin ([6]; relative to heparin): 30%
times more active on the inhibition of the complement than heparin [2]: 10 times
prolongation of the activity of the complement ([2]; dose of 2.4 μg/ml): 50%
prolongation of the activity of the complement ([2]; laminarin sulphate at low concentrations): more than 100%
IC (50), inhibition of the complement by the alternative route [2]: 43 µg/mL
cytotoxic effect [7]: no cytotoxic effect was noticed
activity in the HEPTEST, times weaker than heparin (Xa factor): more than 20 times
IC (50), inhibition of the activation of the complement by the classical way [3]: 0.54 ± 0.06 µg/mL
times more active on the inhibition of the complement than heparin [3]: 80 times
times more active than indomethacin from the molar point of view ([1]; 25 nMol laminarin sulphate vs 200 nMol indomethacin): nine
inhibiting activity when applied after croton oil instead of simultaneously ([1]; control experiment, applied after croton oil): no difference
efficiency compared with dexamethasone ([1]; equimolar concentration of 0.12 mmol/ear): more efficient than dexamethasone
equipotent amount per ear for inhibition of inflammation [1]: 250 μg per ear
anti-coagulant effect on the duration of prothrombin (extrinsic coagulation): no pronounced anti-coagulant effect
anti-thrombin activity (thrombin [8]): nor an anti-thrombin activity
Inhibition expressed in % of the cellular adhesion on L-selectin ([4]; 5 μg/ml): 33 ± 1%
Inhibition expressed in % of the cellular adhesion on L-selectin ([4]; 25 μg/ml): 89 ± 10%
concentration to totally prevent the coagulation, times higher than heparin (thrombin [9]; duration of thrombin): 20 times
specific activity (IU/mg) in the duration of thrombin as % of the activity of heparin (thrombin [9]; relative to heparin): 60%
inhibition of the cellular migration ([5]; 1.67 μg/ml): 50%±6%
